We go through 28 compounds from patent publication US20170114029A1, “TREATMENT OF CHAGAS DISEASE” (UNIVERSITY OF DUNDEE, priority 2014, published 2017).

This test has as its system T. cruzi Tulahuen strain C2C4. In words: Activity against T. cruzi (beta-galactosidase expressing parasites in L-6 cells). The format is cell-based, Trypanosoma cruzi. The note with it: Trypanosoma cruzi, TULAHUEN, L6, in Rattus norvegicus, 96 h, trypomastigotes in rat skeletal myoblasts (L-6 cells), 96 h incubation, CPRG/Nonidet read at 540 nm; read-out: Activity (IC50). The procedure: Activity against T. cruzi. Rat skeletal myoblasts (L-6 cells) were seeded in 96-well microtitre plates at 2000 cells/well in 100 μL RPMI 1640 medium with 10% FBS and 2 mM 1-glutamine. After 24 h the medium was removed and replaced by 100 μl per well containing 5000 trypomastigote forms of T. cruzi Tulahuen strain C2C4 containing the […] (Lac Z) gene (Buckner et al. 1996). After 48 h the medium was removed from the wells and replaced by 100 μl fresh medium with or without a serial drug dilution of eleven 3-fold dilution steps covering a range from 100 to 0.002 μg/ml. After 96 h of incubation the plates were inspected under an inverted microscope to assure growth of the controls and sterility. Then the substrate CPRG/Nonidet (50 μl) was added to all wells. A color reaction developed within 2-6 h and could be read photometrically at 540 nm. Data were analyzed with the graphic programme Softmax Pro (Molecular Devices), which calculated IC50 values by linear regression (Huber 1993) from the sigmoidal dose inhibition curves. Benznidazole is used as control (IC50 0.5±0.2 ug/ml). • Buckner, F. S., C. L. Verlinde, A. C. La Flamme, and W. C. Van Voorhis. 1996. Efficient technique for screening drugs for activity against Trypanosoma cruzi using parasites expressing beta-galactosidase, p. 2592-2597, vol. 40. • Huber, W. Koella, J. C. 1993. A comparison of the three methods of estimating EC50 in studies of drug resistance of malaria parasites. Acta Trop. 55, 257-261.

The structures appear in SMILES notation. In brackets after ≈: the same amount, converted by molar mass.

`CC(=O)Nc1ccc2[nH]c(=O)n([C@H]3CC[C@H](C(C)(C)F)CC3)c(=O)c2c1` [Example 62, N-(3-((1r,4r)-4-(2-Fluoropropan-2-yl)cyclohexyl)-2,4-dioxo-1,2,3,4-tetrahydroquinazolin-6-yl)acetamide]: the IC50 – broadly, the concentration that gives 50% inhibition – came to 0.933 µg/mL (≈ 2.58 µM). For `CC(=O)Nc1ccc2[nH]c(=O)n(C3CCC(C(C)(C)C)C3)c(=O)c2c1` (stereo not shown) [Example 60, N-(3-(3-(Tert-butyl)cyclopentyl)-2,4-dioxo-1,2,3,4-tetrahydroquinazolin-6-yl)acetamide], the IC50 was 0.007 µg/mL (≈ 0.0204 µM). Turning to `CC(=O)Nc1cnc2[nH]c(=O)n([C@H]3CC[C@@H](C(C)(C)C)CC3)c(=O)c2c1` [Example 34, N-[3-(cis-4-tert-Butyl-cyclohexyl)-2,4-dioxo-1,2,3,4-tetrahydro-pyrido[2,3-d]pyrimidin-6-yl)-acetamide], the IC50 is 0.36 µg/mL (≈ 1 µM).

On to `CCNc1ccc2c(c1)c(=O)n(CCC1CCCCC1)c(=O)n2CC` [Example 12b, 3-(2-cyclohexylethyl)-1-ethyl-6-(ethylamino)quinazoline-2,4(1H,3H)-dione], for which the IC50 came to 7.7 µg/mL (≈ 22.4 µM). For the compound `CC(=O)Nc1ccc2[nH]c(=O)n([C@H]3CCO[C@@H](C(C)(C)C)C3)c(=O)c2c1` [Example 61, N-(3-((2R,4S)-2-(Tert-butyl)tetrahydro-2H-pyran-4-yl)-2,4-dioxo-1,2,3,4-tetrahydroquinazolin-6-yl)acetamide], the IC50 turned out to be 0.744 µg/mL (≈ 2.07 µM).

As to `CC(=O)Nc1ccc2[nH]c(=O)n([C@H]3CC[C@H](C(C)(C)C)CC3)c(=O)c2c1` [Example 49, N-(3-((1r,4r)-4-(tert-butyl)cyclohexyl)-2,4-dioxo-1,2,3,4-tetrahydroquinazolin-6-yl)acetamide], the IC50 was 0.008 µg/mL (≈ 0.0224 µM). `O=c1[nH]c2ccc(-c3ccncc3)cc2c(=O)n1CCC1CCCCC1` [Example 19, 3-(2-Cyclohexylethyl)-6-(pyridin-4-yl)quinazoline-2,4(1H,3H)-dione]: the IC50 amounted to 0.605 µg/mL (≈ 1.73 µM). In the case of `O=c1[nH]c2ccc(-c3cncnc3)cc2c(=O)n1CCC1CCCCC1` [Example 18, 3-(2-Cyclohexylethyl)-6-(pyrimidin-5-yl)quinazoline-2,4(1H,3H)-dione], the IC50 amounted to 4.93 µg/mL (≈ 14.1 µM). The value for `CC(=O)N(C)c1ccc2c(c1)c(=O)n(CCC1CCCCC1)c(=O)n2C` [Example 11, N-(3-(2-cyclohexylethyl)-1-methyl-2,4-dioxo-1,2,3,4-tetrahydroquinazolin-6-yl)-N-methylacetamide] was 6.44 µg/mL (≈ 18 µM).

Take `O=c1[nH]c2ccc(-c3cccnc3)cc2c(=O)n1CCC1CCCCC1` [Example 17, 3-(2-Cyclohexylethyl)-6-(pyridin-3-yl)quinazoline-2,4(1H,3H)-dione]: the IC50 amounted to 0.655 µg/mL (≈ 1.87 µM). Take `CC(C)C1CCC(n2c(=O)[nH]c3ccc(N)cc3c2=O)CC1` (racemic) [25 (rac), 6-Amino-3-(4-isopropylcyclohexyl)-1H-quinazoline-2,4-dione]: the IC50 worked out at 0.028 µg/mL (≈ 0.0929 µM). With `CC(C)(C)C(=O)Nc1ccc2[nH]c(=O)n(CCC3CCCCC3)c(=O)c2c1` [Example 15b, N-(3-(2-cyclohexylethyl)-2,4-dioxo-1,2,3,4-tetrahydroquinazolin-6-yl)pivalamide], the IC50 was 2.64 µg/mL (≈ 7.11 µM).

In the case of `CC(=O)Nc1cnc2[nH]c(=O)n([C@H]3CC[C@H](C(C)(C)C)CC3)c(=O)c2c1` [Example 33, N-[3-(trans-4-tert-Butyl-cyclohexyl)-2,4-dioxo-1,2,3,4-tetrahydro-pyrido[2,3-d]pyrimidin-6-yl]-acetamide], the IC50 was 0.196 µg/mL (≈ 0.547 µM). For `CC(C)(C)[C@H]1CC[C@@H](n2c(=O)[nH]c3ccc(N)cc3c2=O)CC1` [23b (cis), 6-amino-3-(cis-4-tert-butyl-cyclohexyl)-1H-quinazoline-2,4-dione], the IC50 was 0.007 µg/mL (≈ 0.0222 µM). As for `CC(=O)Nc1ccc2[nH]c(=O)n(CCC3CCCC3)c(=O)c2c1` [Example 42, N-(3-(2-cyclopentylethyl)-2,4-dioxo-1,2,3,4-tetrahydroquinazolin-6-yl)acetamide], the IC50 came to 0.713 µg/mL (≈ 2.26 µM).

As to `CC[C@H]1CC[C@@H](n2c(=O)[nH]c3ccc(NC(C)=O)cc3c2=O)CC1` [Example 55, N-(3-((1s,4s)-4-Ethylcyclohexyl)-2,4-dioxo-1,2,3,4-tetrahydroquinazolin-6-yl)acetamide], the IC50 turned out to be 0.3 µg/mL (≈ 0.911 µM).

Consider `CC(=O)Nc1ccc2[nH]c(=O)n(C3CCC(C)(C)CC3)c(=O)c2c1` [Example 52, N-(3-(4,4-dimethylcyclohexyl)-2,4-dioxo-1,2,3,4-tetrahydroquinazolin-6-yl)acetamide], for which the IC50 was 0.058 µg/mL (≈ 0.176 µM). The value for `CC(=O)Nc1ccc2[nH]c(=O)n(CCC3=CCCCC3)c(=O)c2c1` [Example 1c, N-[3-(2-Cyclohex-1-enyl-ethyl)-2,4-dioxo-1,2,3,4-tetrahydro-quinazolin-6-yl]-acetamide] was 0.692 µg/mL (≈ 2.11 µM).

For the compound `CC(=O)Nc1ccc2[nH]c(=O)n(C(CC3CCCCC3)C(N)=O)c(=O)c2c1` (stereo not shown) [Example 7, 2-(6-Acetamido-2,4-dioxo-1,4-dihydroquinazolin-3(2H)-yl)-3-cyclohexylpropanamide], the IC50 is 63.6 µg/mL (≈ 171 µM). Take `CC(C)(C)[C@H]1CC[C@H](n2c(=O)[nH]c3ncc(N)cc3c2=O)CC1` [Example 26e, 6-Amino-3-(trans-4-tert-butyl-cyclohexyl)-1H-pyrido[2,3-d]pyrimidine-2,4-dione]: the IC50 is 0.209 µg/mL (≈ 0.661 µM). As to `Nc1ccc2[nH]c(=O)n(CCC3CCCCC3)c(=O)c2c1` [Example 9, 6-Amino-3-(2-cyclohexylethyl)quinazoline-2,4(1H,3H)-dione], the IC50 is 0.339 µg/mL (≈ 1.18 µM). As for `CC(C)(C)[C@H]1CC[C@@H](n2c(=O)[nH]c3ncc(N)cc3c2=O)CC1` [Example 27, 6-Amino-3-((1 S,4S)-4-(tert-butyl)-cyclohexyl)pyrido[2,3-d]pyrimidine-2,4(1H.3H)-dione], the IC50 stood at 0.289 µg/mL (≈ 0.913 µM). As to `CC[C@H]1CC[C@H](n2c(=O)[nH]c3ccc(N)cc3c2=O)CC1` [24 (trans), 6-Amino-3-(trans-4-ethyl-cyclohexyl)-1H-quinazoline-2,4-dione], the IC50 came out at 0.035 µg/mL (≈ 0.122 µM). With `CC(=O)Nc1ccc2[nH]c(=O)n(C3C4CC5CC(C4)CC3C5)c(=O)c2c1` (stereo not shown) [Example 51, N-(3-((1r,3r,5r,7r)-adamantan-2-yl)-2,4-dioxo-1,2,3,4-tetrahydroquinazolin-6-yl)acetamide], the IC50 turned out to be 0.178 µg/mL (≈ 0.504 µM).

For `CC(C)(C)C1CCC(n2c(=O)[nH]c3ccc(-c4ccncc4)cc3c2=O)CC1` (stereo not shown) [Example 21c, 3-(4-(tert-butyl)cyclohexyl)-6-(pyridin-4-yl)quinazoline-2,4(1H,3H)-dione], the IC50 amounted to 0.892 µg/mL (≈ 2.36 µM).

Consider `CC(=O)Nc1ccc2[nH]c(=O)n(CCCC3CCCCC3)c(=O)c2c1` [Example 5, N-[3-(3-Cyclohexyl-propyl)-2,4-dioxo-1,2,3,4-tetrahydro-quinazolin-6-yl]-acetamide], for which the IC50 is 0.163 µg/mL (≈ 0.475 µM). The value for `CCC1CCC(n2c(=O)[nH]c3ccc(N)cc3c2=O)CC1` (racemic) [24 (rac), 6-Amino-3-(4-ethyl-cyclohexyl)-1H-quinazoline-2,4-dione] was 0.022 µg/mL (≈ 0.0766 µM). Consider `CC(=O)Nc1ccc2[nH]c(=O)n([C@H]3CC[C@@H](C(C)(C)C)CC3)c(=O)c2c1` [Example 50, N-(3-((1s,4s)-4-(Tert-butyl)cyclohexyl)-2,4-dioxo-1,2,3,4-tetrahydroquinazolin-6-yl)acetamide], for which the IC50 stood at 0.005 µg/mL (≈ 0.014 µM).
